Measurements as given in patent publication US4302448A, “Secretin preparations with intensified and protracted action, process for their manufacture, their use as well as dihydroxybenzoyl-L-tyrosine” (Hoechst Aktiengesellschaft, priority 1979, dated 1981).
Where a SMILES comes first, the peptide text is derived from it. The star is where a group is joined. Cbz = O=C(OCc1ccccc1)*

Test system: Pancreatic juice secretion of the rat
Test: Pancreatic juice secretion of the rat after subcutaneous administration of secretin with depot bodies
Format: in vivo
Conditions: rat, subcutaneous, 5 CU/kg secretin + 10 mg depot body/animal; for Δ% vs. control (percentage by which the pancreatic secretion is above the basal secretion after 5 hours): control=100%, measure of depot effect; for Rel. Intensity of effect over 5 hours (total pancreatic juice secretion over 5 hours as compared with control): control (0.9% of NaCl)=1
Protocol: Secretin preparations for subcutaneous application which contained the depot bodies specified in the following Table were tested in animal experiments. In the experimental procedure chosen, 5 to 8 male rats weighing 300 to 500 g each are administered subcutaneously 5 CU/kg of secretin (CU means clinical unit) and 10 mg of the depot body to be tested each in aqueous solution or suspension.
The animals remain without food for 18 hours prior to the test, but they are given water ad libitum. Under urethane anaesthesia (5 ml/kg i.m. of 25% urethane) the abdomen is opened by median section after tracheotomy, and the pylorus is ligated. The ductus choledochus is tied off in its proximal part near the porta hepatis, and the bile is led into the duodenum via a polyethylene tube of a diameter of […]. A cannula or catheter is inserted into the distal part of the bile duct, into which the numerous pancreatic ducts open, immediately before it opens into the duodenum, and the volume of the secretion running off is measured in 60 minute intervals. Following a preliminary run of 60 minutes the preparations are administered.
L means the compound known from literature and characterized by the melting point, optionally UV, IR or NMR. A to C relate to the preparation according to Example 1, process A to C. These compounds were characterized by ultimate analysis. The third column indicates the percentage by which the pancreatic secretion is above the basal secretion after 5 hours (calculated on the control=100%). This value is a measure for the depot effect of the depot body tested. Column 4 indicates the intensification of the secretin effect, with the total pancreatic juice secretion having been given over 5 hours as compared with the control (0.9% of NaCl)=1.

Compound	Δ% vs. control (percentage by which the pancreatic secretion is above the basal secretion after 5 hours)	Rel. Intensity of effect over 5 hours (total pancreatic juice secretion over 5 hours as compared with control)
2,8-Dihydroxy-3-naphthoyl-diethanolamine	77%	9.1
3,5-Dihydroxyphenylcarbonyl-ethylphenyl-3,5-dimethyl phosphate	62%	3.4
O=C(c1ccc2ccccc2c1O)N(CCO)CCO [1-Hydroxy-2-naphthoic acid-diethanolamide]	79%	8.1
O=C(NCCO)c1ccc2ccccc2c1O [1-Hydroxy-2-naphthoic acid-ethanolamide]	74%	8.0
O=C(c1ccc(O)cc1O)c1ccc(O)cc1O [2,2'-4,4'-Tetrahydroxybenzophenone]	58%	4.8
O=C(c1ccccc1)c1ccc(O)c(O)c1O [2,3,4-Trihydroxy-benzophenone]	109%	9.1
CC(=O)c1ccc(O)cc1O [2,4-Dihydroxy-acetophenone]	70%	6.1
O=C(c1ccccc1)c1ccc(O)cc1O [2,4-Dihydroxy-benzophenone]	163%	9.1
O=C(NCc1ccccc1)c1ccc(O)cc1O [2,4-Dihydroxybenzoic acid-benzylamide]	64%	6.8
O=C(O)c1ccc(O)cc1O [2,4-Dihydroxybenzoic acid]	28%	7.1
O=C(N[C@@H](Cc1ccc(O)cc1)C(=O)N(CCO)CCO)c1ccc(O)cc1O [2,4-Dihydroxybenzoyl-L-tyrosine-diethanolamide]	47%	8.7
COC(=O)[C@H](Cc1ccc(O)cc1)NC(=O)c1ccc(O)cc1O [2,4-Dihydroxybenzoyl-L-tyrosine-methyl ester]	70%	7.8
CCCCNC(=O)[C@H](Cc1ccc(O)cc1)NC(=O)c1ccc(O)cc1O [2,4-Dihydroxybenzoyl-L-tyrosine-n-butylamide]	87%	8.7
O=C(N[C@@H](Cc1ccc(O)cc1)C(=O)O)c1ccc(O)cc1O [2,4-Dihydroxybenzoyl-L-tyrosine]	84%	
O=C(c1cc(Cl)ccc1O)N(CCO)CCO [2-Hydroxy-5-chloro-benzoic acid-diethanolamide]	77%	7.3
NC(=O)c1ccccc1O [2-Hydroxy-benzoic acid amide]	51%	8.0
O=C(O)c1ccccc1O [2-Hydroxy-benzoic acid]	6%	4.5
O=C(c1ccccc1)c1ccccc1O [2-Hydroxy-benzophenone]	74%	7.2
O=C(O)c1cc(O)nc2ccccc12 [2-Hydroxy-quinoline-4-carboxylic acid]	5%	5.0
O=C(CO)c1ccccc1 [2-Hydroxyacetophenone]	38%	7.6

Compound	Δ% vs. control (percentage by which the pancreatic secretion is above the basal secretion after 5 hours)	Rel. Intensity of effect over 5 hours (total pancreatic juice secretion over 5 hours as compared with control)
O=C(O)c1cc(O)c(O)c(O)c1 [3,4,5-Trihydroxybenzoic acid]	28%	5.0
NC(=O)c1cc(O)cc(O)c1 [3,5-Dihydroxybenzoic acid amide]	34%	6.2
O=C(Nc1cccc(O)c1)c1cc(O)cc(O)c1 [3,5-Dihydroxybenzoic acid-3-hydroxy-anilide]	49%	6.2
O=C(O)c1cc(O)cc(O)c1 [3,5-Dihydroxybenzoic acid]	25%	6.6
O=C(NC(Cc1ccc(O)cc1)C(=O)N(CCO)CCO)c1cc(O)cc(O)c1 [3,5-Dihydroxybenzoyl-L-tyrosine-diethanolamide]	76%	7.6
NS(=O)(=O)c1cccc(NC(=O)c2ccccc2O)c1 [3-(2-Hydroxybenzoylamino)-benzene-sulfonamide]	81%	8.1
CC(=O)c1cccc(O)c1 [3-Hydroxy-acetophene]	54%	9.0
O=C(c1ccccc1)c1cccc(O)c1 [3-Hydroxy-benzophenone]	79%	8.0
O=C(O)c1cccc(O)c1 [3-Hydroxybenzoic acid]	47%	4.0
O=S(=O)(c1ccc(O)cc1)c1ccc(O)cc1 [4,4'-Dihydroxy-diphenyl sulfone]	74%	6.2
COC(=O)c1ccc(O)cc1 [4-Hydroxy-benzoic acid-methyl-ester]	15%	5.3
OCc1ccc(O)cc1 [4-Hydroxy-benzyl alcohol]	12%	1.3
CC(=O)c1ccc(O)cc1 [4-Hydroxyacetophenone]	43%	8.1
O=S(=O)([O-])c1ccc(O)cc1.[Na+] [4-Hydroxybenzene-sulfonic acid-Na]	18%	2.7
O=C(O)c1ccc(O)cc1 [4-Hydroxybenzoic acid]	38%	3.8
O=C(c1ccccc1)c1ccc(O)cc1 [4-Hydroxybenzophenone]	70%	6.7
Oc1cccc2cccnc12 [8-Hydroxyquinoline]	37%	4.7
O=C(N[C@@H](Cc1ccc(O)cc1)C(=O)O)OCc1ccccc1 [Benzyloxycarbonyl-L-tyrosine]	7%	5.9
O=C(N[C@@H](Cc1ccc(O)cc1)C(=O)N[C@@H](Cc1ccc(O)cc1)C(=O)O)OCc1ccccc1 [Benzyloxycarbonyl-L-tyrosyl-L-tyrosine] (Cbz-Tyr-Tyr-OH)	62%	7.5
